This assay deals with MV-4-11 cells. The assay can be described thus: Gene expression microarray analysis (Affymetrix PrimeView) and GSEA. Further details: RFU PODN (11730768_x_at) / Fold change /veh PODN (11730768_x_at) / RFU LINC00158 (11744669_a_at) / Fold change /veh LINC00158 (11744669_a_at) / RFU DUSP10 (11751237_a_at) / Fold change /veh DUSP10 (11751237_a_at) / RFU ID3 (11757404_x_at) / Fold change /veh ID3 (11757404_x_at) / RFU PLEKHG5 (11737974_s_at) / Fold change /veh PLEKHG5 (11737974_s_at) / RFU LRRC4B (11730491_at) / Fold change /veh LRRC4B (11730491_at) / RFU GIMAP4 (11747438_a_at) / Fold change /veh GIMAP4 (11747438_a_at) / RFU KRT8 (11758183_x_at) / Fold change /veh KRT8 (11758183_x_at) / RFU CNN1 (11734310_a_at) / Fold change /veh CNN1 (11734310_a_at) / RFU VPS37D (11726825_at) / Fold change /veh VPS37D (11726825_at) / RFU C10orf10 (11716522_x_at) / Fold change /veh C10orf10 (11716522_x_at) / RFU KIR2DL2 /// KIR2DL4 /// KIR2DL5A /// KIR2DL5B /// KIR2DS1 /// KIR2DS2 /// KIR2DS3 /// KIR2DS4 /// KIR3DL3 /// KIR3DL3 /// KIR3DS1 (11738374_at) / Fold change /veh KIR2DL2 /// KIR2DL4 /// KIR2DL5A /// KIR2DL5B /// KIR2DS1 /// KIR2DS2 /// KIR2DS3 /// KIR2DS4 /// KIR3DL3 /// KIR3DL3 /// KIR3DS1 (11738374_at) / RFU C1QL1 (11718748_at) / Fold change /veh C1QL1 (11718748_at) / RFU TMPRSS4 (11747572_a_at) / Fold change /veh TMPRSS4 (11747572_a_at) / RFU HAMP (11756126_x_at) / Fold change /veh HAMP (11756126_x_at) / RFU RNFT2 (11725882_a_at) / Fold change /veh RNFT2 (11725882_a_at) / RFU NR4A2 (11747474_a_at) / Fold change /veh NR4A2 (11747474_a_at) / RFU ABCC12 (11746883_a_at) / Fold change /veh ABCC12 (11746883_a_at) / RFU TMEM136 (11760407_x_at) / Fold change /veh TMEM136 (11760407_x_at) / RFU CLDN22 /// WWC2 (11732394_at) / Fold change /veh CLDN22 /// WWC2 (11732394_at) / RFU HLA-DPB1 (11760878_x_at) / Fold change /veh HLA-DPB1 (11760878_x_at) / RFU SPINT1 (11716480_a_at) / Fold change /veh SPINT1 (11716480_a_at) / RFU GAP43 (11754022_s_at) / Fold change /veh GAP43 (11754022_s_at) / RFU A4GNT (11735810_at) / Fold change /veh A4GNT (11735810_at) / RFU PRB3 (11715151_x_at) / Fold change /veh PRB3 (11715151_x_at) / RFU TUBB4B (11761932_at) / Fold change /veh TUBB4B (11761932_at) / RFU CAPN14 (11732068_a_at) / Fold change /veh CAPN14 (11732068_a_at) / RFU TMCC2 (11721928_a_at) / Fold change /veh TMCC2 (11721928_a_at) / RFU IRGQ (11745062_a_at) / Fold change /veh IRGQ (11745062_a_at) / RFU FAM174B (11720279_a_at) / Fold change /veh FAM174B (11720279_a_at) / RFU TMPRSS4 (11748680_a_at) / Fold change /veh TMPRSS4 (11748680_a_at) / RFU FAM212B (11763350_a_at) / Fold change /veh FAM212B (11763350_a_at) / RFU PLEKHG5 (11743358_a_at) / Fold change /veh PLEKHG5 (11743358_a_at) / RFU ZSCAN30 (11745921_a_at) / Fold change /veh ZSCAN30 (11745921_a_at) / RFU CMKLR1 (11741424_a_at) / Fold change /veh CMKLR1 (11741424_a_at) / RFU LOC101060620 /// MAPK8IP1 (11723275_at) / Fold change /veh LOC101060620 /// MAPK8IP1 (11723275_at) / RFU SPTSSB (11747773_x_at) / Fold change /veh SPTSSB (11747773_x_at) / RFU PRSS12 (11739890_at) / Fold change /veh PRSS12 (11739890_at) / RFU BIN1 (11741810_x_at) / Fold change /veh BIN1 (11741810_x_at) / RFU WNT11 (11732464_a_at) / Fold change /veh WNT11 (11732464_a_at) / RFU C10orf10 (11716521_a_at) / Fold change /veh C10orf10 (11716521_a_at) / RFU C5orf56 (11738089_at) / Fold change /veh C5orf56 (11738089_at) / RFU CYB561 (11721691_x_at) / Fold change /veh CYB561 (11721691_x_at) / RFU ANKRD19P (11752326_a_at) / Fold change /veh ANKRD19P (11752326_a_at) / RFU OR2T12 /// OR2T33 /// OR2T8 (11738714_s_at) / Fold change /veh OR2T12 /// OR2T33 /// OR2T8 (11738714_s_at) / RFU VCAN (11748164_a_at) / Fold change /veh VCAN (11748164_a_at) / RFU JSRP1 (11732532_at) / Fold change /veh JSRP1 (11732532_at) / RFU KRTAP10-11 (11738290_x_at) / Fold change /veh KRTAP10-11 (11738290_x_at) / RFU MYO3A (11730013_a_at) / Fold change /veh MYO3A (11730013_a_at) / RFU EBF3 (11725865_a_at) / Fold change /veh EBF3 (11725865_a_at) / RFU CAMK2N1 (11719241_x_at) / Fold change /veh CAMK2N1 (11719241_x_at) / RFU C5orf56 (11738088_a_at) / Fold change /veh C5orf56 (11738088_a_at) / RFU OLFML3 (11715873_a_at) / Fold change /veh OLFML3 (11715873_a_at) / RFU LOC100653217 /// NTM (11731650_a_at) / Fold change /veh LOC100653217 /// NTM (11731650_a_at) / RFU MAPK11 (11762145_a_at) / Fold change /veh MAPK11 (11762145_a_at) / RFU FIZ1 (11724087_x_at) / Fold change /veh FIZ1 (11724087_x_at) / RFU OASL (11726364_x_at) / Fold change /veh OASL (11726364_x_at) / RFU SOX15 (11748057_x_at) / Fold change /veh SOX15 (11748057_x_at) / RFU CD79A (11719716_a_at) / Fold change /veh CD79A (11719716_a_at) / RFU HIST1H1D (11736915_at) / Fold change /veh HIST1H1D (11736915_at) / RFU CASKIN2 (11723855_a_at) / Fold change /veh CASKIN2 (11723855_a_at) / RFU LOC730098 (11760151_x_at) / Fold change /veh LOC730098 (11760151_x_at) / RFU OR4N2 (11742367_at) / Fold change /veh OR4N2 (11742367_at) / RFU PRRT2 (11749266_a_at) / Fold change /veh PRRT2 (11749266_a_at) / RFU SNX32 (11753110_a_at) / Fold change /veh SNX32 (11753110_a_at) / RFU CDHR5 (11726645_a_at) / Fold change /veh CDHR5 (11726645_a_at) / RFU RCAN1 (11760418_a_at) / Fold change /veh RCAN1 (11760418_a_at) / RFU FAM167A (11723789_a_at) / Fold change /veh FAM167A (11723789_a_at) / RFU FAM26E (11764081_at) / Fold change /veh FAM26E (11764081_at) / RFU ISYNA1 (11749810_s_at) / Fold change /veh ISYNA1 (11749810_s_at) / RFU ACY1 (11761880_at) / Fold change /veh ACY1 (11761880_at) / RFU 11764098_at / Fold change /veh 11764098_at / RFU SAMD14 (11745864_x_at) / Fold change /veh SAMD14 (11745864_x_at) / RFU NPB (11741838_a_at) / Fold change /veh NPB (11741838_a_at) / RFU TMPRSS6 (11731388_a_at) / Fold change /veh TMPRSS6 (11731388_a_at) / RFU KRTAP10-2 (11738614_at) / Fold change /veh KRTAP10-2 (11738614_at) / RFU ARHGAP8 /// PRR5-ARHGAP8 (11727945_x_at) / Fold change /veh ARHGAP8 /// PRR5-ARHGAP8 (11727945_x_at) / RFU KRTAP5-7 /// NADSYN1 (11734609_at) / Fold change /veh KRTAP5-7 /// NADSYN1 (11734609_at) / RFU RASL12 (11751679_a_at) / Fold change /veh RASL12 (11751679_a_at) / RFU CDKN2B (11736163_a_at) / Fold change /veh CDKN2B (11736163_a_at) / RFU PRF1 (11729649_at) / Fold change /veh PRF1 (11729649_at) / RFU, ZNF638 /// ZNF638-IT1 / Fold change vs veh, ZNF638 /// ZNF638-IT1 / RFU, PANK3 / Fold change vs veh, PANK3 / RFU, SH3YL1 / Fold change vs veh, SH3YL1 / RFU, ZEB2 / Fold change vs veh, ZEB2 / RFU, NRIP1 / Fold change vs veh, NRIP1 / RFU, PTTG1IP / Fold change vs veh, PTTG1IP / RFU, CAPN2 / Fold change vs veh, CAPN2 / RFU, MED14 / Fold change vs veh, MED14 / RFU, SNORA58 / Fold change vs veh, SNORA58 / RFU, C1orf63 / Fold change vs veh, C1orf63 / RFU, LRRFIP1 / Fold change vs veh, LRRFIP1 / RFU, NDUFAF7 / Fold change vs veh, NDUFAF7 / RFU, SLC12A2 / Fold change vs veh, SLC12A2 / RFU, IBTK / Fold change vs veh, IBTK / RFU, ESF1 / Fold change vs veh, ESF1 / Fold change vs veh, TMEM50B / RFU, TAOK1 / Fold change vs veh, TAOK1 / RFU, ACBD3 / Fold change vs veh, ACBD3 / RFU, TMA16 / Fold change vs veh, TMA16 / RFU, RWDD3 / Fold change vs veh, RWDD3 / RFU, BCAT1 / Fold change vs veh, BCAT1 / RFU, EDEM3 / Fold change vs veh, EDEM3 / RFU, TMEM33 / Fold change vs veh, TMEM33 / RFU, WDR75 / Fold change vs veh, WDR75 / RFU, AHCTF1 / Fold change vs veh, AHCTF1 / RFU, TFRC / Fold change vs veh, TFRC / RFU, ZDHHC17 / Fold change vs veh, ZDHHC17 / RFU, NOM1 / Fold change vs veh, NOM1 / RFU, ARL8B / Fold change vs veh, ARL8B / RFU, ZBTB11 / Fold change vs veh, ZBTB11 / RFU, TAMM41 / Fold change vs veh, TAMM41 / RFU, KIAA1704 /// LOC100996395 / Fold change vs veh, KIAA1704 /// LOC100996395 / RFU, ING1 / Fold change vs veh, ING1 / RFU, TRMT61B / Fold change vs veh, TRMT61B / RFU, FUBP3 / Fold change vs veh, FUBP3 / RFU, TP53 / Fold change vs veh, TP53 / RFU, TNKS2 / Fold change vs veh, TNKS2 / RFU, ZFP14 / Fold change vs veh, ZFP14 / RFU, ACTR2 / Fold change vs veh, ACTR2 / RFU, PPP3R1 / Fold change vs veh, PPP3R1 / RFU, PIK3R1 / Fold change vs veh, PIK3R1 / RFU, HNRNPA1 / Fold change vs veh, HNRNPA1 / RFU, RNF170 / Fold change vs veh, RNF170 / RFU, ZNF28 / Fold change vs veh, ZNF28 / RFU, RNGTT / Fold change vs veh, RNGTT / RFU, OGT / Fold change vs veh, OGT / RFU, BRD1 / Fold change vs veh, BRD1 / RFU, MARS / Fold change vs veh, MARS / RFU, ZNF655 / Fold change vs veh, ZNF655 / RFU, FAHD1 / Fold change vs veh, FAHD1 / RFU, BDP1 / Fold change vs veh, BDP1 / RFU, LRRCC1 / Fold change vs veh, LRRCC1 / RFU, ARID1A / Fold change vs veh, ARID1A / RFU, ZNF146 / Fold change vs veh, ZNF146 / RFU, ZNF330 / Fold change vs veh, ZNF330 / RFU, GPN3 / Fold change vs veh, GPN3 / RFU, C9orf123 / Fold change vs veh, C9orf123 / RFU, N4BP2L2 / Fold change vs veh, N4BP2L2 / RFU, ARFIP1 / Fold change vs veh, ARFIP1 / RFU, FAM179B / Fold change vs veh, FAM179B / RFU, BCL10 / Fold change vs veh, BCL10 / RFU, UHRF1BP1L / Fold change vs veh, UHRF1BP1L / RFU, BET1 / Fold change vs veh, BET1 / RFU, CNOT2 / Fold change vs veh, CNOT2 / RFU, ZNF268 / Fold change vs veh, ZNF268 / Fold change vs veh, ZNF507 / RFU, DGCR2 / Fold change vs veh, DGCR2 / RFU, WDSUB1 / Fold change vs veh, WDSUB1 / Fold change vs veh, HSP90B1 /// MIR3652 / RFU, ADSS / Fold change vs veh, ADSS / RFU, GK / Fold change vs veh, GK / RFU, ZNF148 / Fold change vs veh, ZNF148 / RFU, TAF9 / Fold change vs veh, TAF9 / RFU, SLC1A5 / Fold change vs veh, SLC1A5 / RFU, SLMO2 / Fold change vs veh, SLMO2 / RFU, ABCC4 / Fold change vs veh, ABCC4 / RFU, LOC101060439 /// RAP1B / Fold change vs veh, LOC101060439 /// RAP1B / RFU, RFX7 / Fold change vs veh, RFX7 / RFU, GTPBP10 / Fold change vs veh, GTPBP10 / RFU, CNEP1R1 / Fold change vs veh, CNEP1R1 / RFU, BIVM-ERCC5 /// ERCC5 / Fold change vs veh, BIVM-ERCC5 /// ERCC5 / RFU, ILF3 / Fold change vs veh, ILF3 / RFU 11762660_at / Fold change /veh 11762660_at / RFU VCAN (11757783_s_at) / Fold change /veh VCAN (11757783_s_at) / RFU DDX43 (11728927_at) / Fold change /veh DDX43 (11728927_at) / RFU KRT8 (11758188_x_at) / Fold change /veh KRT8 (11758188_x_at) / RFU NKD1 (11759106_at) / Fold change /veh NKD1 (11759106_at) / RFU SRD5A1 (11742802_a_at) / Fold change /veh SRD5A1 (11742802_a_at) / RFU TPSAB1 /// TPSB2 (11721975_s_at) / Fold change /veh TPSAB1 /// TPSB2 (11721975_s_at) / RFU GSTM3 (11746129_a_at) / Fold change /veh GSTM3 (11746129_a_at) / RFU IL23R (11737362_x_at) / Fold change /veh IL23R (11737362_x_at) / RFU TMEM51 (11727254_a_at) / Fold change /veh TMEM51 (11727254_a_at) / RFU PIWIL2 (11732686_x_at) / Fold change /veh PIWIL2 (11732686_x_at) / RFU ORM1 (11744905_x_at) / Fold change /veh ORM1 (11744905_x_at) / RFU CCDC152 (11743942_at) / Fold change /veh CCDC152 (11743942_at) / RFU ECM1 (11717891_a_at) / Fold change /veh ECM1 (11717891_a_at) / RFU IL23R (11748794_a_at) / Fold change /veh IL23R (11748794_a_at) / RFU TNFAIP8L3 (11732012_x_at) / Fold change /veh TNFAIP8L3 (11732012_x_at) / RFU MBOAT4 (11741988_at) / Fold change /veh MBOAT4 (11741988_at) / RFU 11764193_at / Fold change /veh 11764193_at / RFU TMEM53 (11763286_at) / Fold change /veh TMEM53 (11763286_at) / RFU MAGEB2 (11727129_at) / Fold change /veh MAGEB2 (11727129_at) / RFU TMEM200A (11744735_a_at) / Fold change /veh TMEM200A (11744735_a_at) / RFU CCDC152 (11751479_a_at) / Fold change /veh CCDC152 (11751479_a_at) / RFU FAM211A (11726209_a_at) / Fold change /veh FAM211A (11726209_a_at) / RFU RGS16 (11746705_a_at) / Fold change /veh RGS16 (11746705_a_at) / RFU VCAN (11755009_s_at) / Fold change /veh VCAN (11755009_s_at) / RFU RHOB (11743442_s_at) / Fold change /veh RHOB (11743442_s_at) / RFU RGS16 (11720943_a_at) / Fold change /veh RGS16 (11720943_a_at) / RFU RGS16 (11720944_at) / Fold change /veh RGS16 (11720944_at) / RFU, VPS4B / Fold change vs veh, VPS4B / RFU, CREB1 / Fold change vs veh, CREB1 / RFU, DNAJC13 / Fold change vs veh, DNAJC13 / RFU, GNAQ / Fold change vs veh, GNAQ / RFU, CDK5R1 / Fold change vs veh, CDK5R1 / RFU, ZRANB3 / Fold change vs veh, ZRANB3 / RFU, CUL4A / Fold change vs veh, CUL4A / RFU, CCNY / Fold change vs veh, CCNY / RFU, UFL1 / Fold change vs veh, UFL1 / RFU, COG3 / Fold change vs veh, COG3 / RFU, DIAPH2 / Fold change vs veh, DIAPH2 / RFU, SKA2 / Fold change vs veh, SKA2 / RFU, AFF3 / Fold change vs veh, AFF3 / RFU, LMF1 / Fold change vs veh, LMF1 / RFU, IPO11 / Fold change vs veh, IPO11 / RFU, DFFB / Fold change vs veh, DFFB / RFU, FOXP1 / Fold change vs veh, FOXP1 / RFU, CARD8 / Fold change vs veh, CARD8 / RFU, STRN3 / Fold change vs veh, STRN3 / RFU, ADK / Fold change vs veh, ADK / RFU, RASSF2 / Fold change vs veh, RASSF2 / RFU, WIPF1 / Fold change vs veh, WIPF1 / RFU, LARP1B / Fold change vs veh, LARP1B / RFU, RASA1 / Fold change vs veh, RASA1 / RFU, RB1 / Fold change vs veh, RB1 / RFU, PPFIA1 / Fold change vs veh, PPFIA1 / RFU, MAT2A / Fold change vs veh, MAT2A / RFU, CCT5 / Fold change vs veh, CCT5 / RFU, WDR92 / Fold change vs veh, WDR92 / RFU, CUX1 / Fold change vs veh, CUX1 / RFU, TTC7A / Fold change vs veh, TTC7A / RFU, TMEM135 / Fold change vs veh, TMEM135 / RFU, DEPTOR / Fold change vs veh, DEPTOR / RFU, CPM / Fold change vs veh, CPM / RFU, DNAJB6 / Fold change vs veh, DNAJB6 / RFU, CACNA2D3 / Fold change vs veh, CACNA2D3 / RFU, DTX4 / Fold change vs veh, DTX4 / RFU, TFCP2 / Fold change vs veh, TFCP2 / RFU, GMCL1 /// GMCL1P1 / Fold change vs veh, GMCL1 /// GMCL1P1 / RFU, AEBP2 / Fold change vs veh, AEBP2 / RFU, SNHG1 /// SNORD22 /// SNORD25 /// SNORD26 /// SNORD27 /// SNORD28 /// SNORD29 /// SNORD31 / Fold change vs veh, SNHG1 /// SNORD22 /// SNORD25 /// SNORD26 /// SNORD27 /// SNORD28 /// SNORD29 /// SNORD31 / Fold change (Aza/veh), C12orf56 (ProbeSet 11735607_a_at) / Fold change (ACY-1035/veh), C12orf56 (ProbeSet 11735607_a_at) / Fold change (Aza/veh), FGFR1OP (ProbeSet 11751329_s_at) / Fold change (ACY-1035/veh), FGFR1OP (ProbeSet 11751329_s_at) / Fold change (Aza/veh), VPS36 (ProbeSet 11739960_a_at) / Fold change (ACY-1035/veh), VPS36 (ProbeSet 11739960_a_at) / RFU SYPL1 (11715823_x_at) / Fold change /veh SYPL1 (11715823_x_at) / RFU IGFBP7 (11715501_s_at) / Fold change /veh IGFBP7 (11715501_s_at) / RFU REEP3 (11722064_at) / Fold change /veh REEP3 (11722064_at) / RFU IGLL1 (11728026_x_at) / Fold change /veh IGLL1 (11728026_x_at): dose or concentration left out as unconfirmed. The format is cell-based, human. As to conditions: MV-4-11 cells, 48 hours.

Structures are written as SMILES.

The values that follow come from article PMC5218480 (PLoS ONE, 2017).

On to `Nc1ncn([C@@H]2O[C@H](CO)[C@@H](O)[C@H]2O)c(=O)n1` [azacitidine], for which the “Fold change /veh MAGEB2 (11727129_at)” value is 2.40.
